From ChEMBL document CHEMBL4828726, “Modification of 5-methylphenanthridium from benzothiazoles to indoles as potent FtsZ inhibitors: Broadening the antibacterial spectrum toward vancomycin-resistant enterococci” (Eur J Med Chem, 2021)
≈ marks a conversion by molar mass, not a printed value. Calls of active or inactive are those of the source. No cut-off for these calls is given here.

Experiments:
Pseudomonas aeruginosa = assay: Antibacterial activity against penicillin-susceptible Pseudomonas aeruginosa ATCC 27853 assessed as inhibition of bacterial growth measured after 20 hrs by two-fold microdilution assay; type: functional
[1] = tested on: Staphylococcus epidermidis; assay: Antibacterial activity against penicillin-resistant Staphylococcus epidermidis assessed as inhibition of bacterial growth measured after 20 hrs by two-fold microdilution assay; type: functional
Staphylococcus aureus [2] = assay: Ratio of MBC to MIC against erythromycin-susceptible Staphylococcus aureus ATCC 25923; type: functional
Escherichia coli = assay: Antibacterial activity against penicillin-susceptible Escherichia coli ATCC 25922 assessed as inhibition of bacterial growth measured after 20 hrs by two-fold microdilution assay; type: functional
Streptococcus pyogenes [3] = assay: Antibacterial activity against erythromycin-susceptible Streptococcus pyogenes assessed as inhibition of bacterial growth measured after 20 hrs by two-fold microdilution assay; type: functional
Bacillus subtilis [4] = assay: Bactericidal activity against penicillin-susceptible Bacillus subtilis ATCC 9372 assessed as inhibition of bacterial growth measured after 20 hrs by two-fold microdilution assay; type: functional
Enterococcus faecium [5] = assay: Antibacterial activity against Vancomycin-susceptible Enterococcus faecium ATCC 19434 assessed as inhibition of bacterial growth measured after 20 hrs by two-fold microdilution assay; type: functional
Bacillus subtilis [6] = assay: Antibacterial activity against penicillin-susceptible Bacillus subtilis ATCC 9372 assessed as inhibition of bacterial growth measured after 20 hrs by two-fold microdilution assay; type: functional
Enterococcus faecalis [7] = assay: Antibacterial activity against Vancomycin-susceptible Enterococcus faecalis ATCC 29212 assessed as inhibition of bacterial growth measured after 20 hrs by two-fold microdilution assay; type: functional
Staphylococcus aureus [8] = assay: Ratio of MBC to MIC against methicilline-resistant Staphylococcus aureus ATCC43300; type: functional
Enterococcus faecalis [9] = assay: Antibacterial activity against Vancomycin-resistant Enterococcus faecalis ATCC 51299 assessed as inhibition of bacterial growth measured after 20 hrs by two-fold microdilution assay; type: functional
Staphylococcus aureus [10] = assay: Antibacterial activity against clinical isolate Staphylococcus aureus C1 assessed as inhibition of bacterial growth measured after 20 hrs by two-fold microdilution assay; type: functional
Enterococcus faecium [11] = assay: Antibacterial activity against Vancomycin-resistant Enterococcus faecium ATCC 51559 assessed as inhibition of bacterial growth measured after 20 hrs by two-fold microdilution assay; type: functional
Staphylococcus aureus [12] = assay: Bactericidal activity against methicillin-resistant Staphylococcus aureus ATCC43300 assessed as inhibition of bacterial growth measured after 20 hrs by two-fold microdilution assay; type: functional
Staphylococcus aureus [13] = assay: Bactericidal activity against penicillin-resistant Staphylococcus aureus ATCC 31007 assessed as inhibition of bacterial growth measured after 20 hrs by two-fold microdilution assay; type: functional
Bacillus pumilus [14] = assay: Ratio of MBC to MIC against penicillin-susceptible Bacillus pumilus CMCC63202; type: functional
Staphylococcus aureus [15] = assay: Bactericidal activity against erythromycin-susceptible Staphylococcus aureus ATCC 25923 assessed as inhibition of bacterial growth measured after 20 hrs by two-fold microdilution assay; type: functional
Bacillus subtilis [16] = assay: Ratio of MBC to MIC against penicillin-susceptible Bacillus subtilis ATCC 9372; type: functional
Bacillus pumilus [17] = assay: Bactericidal activity against penicillin-susceptible Bacillus pumilus CMCC63202 assessed as inhibition of bacterial growth measured after 20 hrs by two-fold microdilution assay; type: functional
Streptococcus pyogenes [18] = assay: Antibacterial activity against erythromycin-resistant Streptococcus pyogenes assessed as inhibition of bacterial growth measured after 20 hrs by two-fold microdilution assay; type: functional
Bacillus pumilus [19] = assay: Antibacterial activity against penicillin-susceptible Bacillus pumilus CMCC63202 assessed as inhibition of bacterial growth measured after 20 hrs by two-fold microdilution assay; type: functional
Staphylococcus aureus [20] = assay: Antibacterial activity against methicillin-resistant Staphylococcus aureus ATCC43300 assessed as inhibition of bacterial growth measured after 20 hrs by two-fold microdilution assay; type: functional
Staphylococcus aureus [21] = assay: Antibacterial activity against erythromycin-susceptible Staphylococcus aureus ATCC 25923 assessed as inhibition of bacterial growth measured after 20 hrs by two-fold microdilution assay; type: functional
Staphylococcus aureus [22] = assay: Antibacterial activity against penicillin-resistant Staphylococcus aureus ATCC 31007 assessed as inhibition of bacterial growth measured after 20 hrs by two-fold microdilution assay; type: functional
Enterococcus faecalis [23] = assay: Bactericidal activity against Vancomycin-resistant Enterococcus faecalis ATCC 51299 assessed as inhibition of bacterial growth measured after 20 hrs by two-fold microdilution assay; type: functional
Enterococcus faecium [24] = assay: Bactericidal activity against Vancomycin-resistant Enterococcus faecium ATCC 51559 assessed as inhibition of bacterial growth measured after 20 hrs by two-fold microdilution assay; type: functional
Staphylococcus aureus [25] = assay: Antibacterial activity against Staphylococcus aureus ATCC 25923 assessed as decrease of bacterial growth at 32 ug/ml measured up to 24 hrs by Time kill assay; type: functional, organism-based; conditions: dose 32.0 µg/ml, time hrs <=24
Enterococcus faecalis [26] = assay: Bactericidal activity against Vancomycin-susceptible Enterococcus faecalis ATCC 29212 assessed as inhibition of bacterial growth measured after 20 hrs by two-fold microdilution assay; type: functional
Enterococcus faecium [27] = assay: Bactericidal activity against Vancomycin-susceptible Enterococcus faecium ATCC 19434 assessed as inhibition of bacterial growth measured after 20 hrs by two-fold microdilution assay; type: functional
[28] = molecular target: T1, Cell division protein FtsZ (Bacillus subtilis (strain 168)) (UniProt P17865); assay: Inhibition of Bacillus subtilis FtsZ assessed as promotion of FtsZ polymerization at 10 ug/ml measured after […] by fluorescence spectrometer based light scattering assay; conditions: dose 10.0 µg/ml
T1 sequence (whole entry): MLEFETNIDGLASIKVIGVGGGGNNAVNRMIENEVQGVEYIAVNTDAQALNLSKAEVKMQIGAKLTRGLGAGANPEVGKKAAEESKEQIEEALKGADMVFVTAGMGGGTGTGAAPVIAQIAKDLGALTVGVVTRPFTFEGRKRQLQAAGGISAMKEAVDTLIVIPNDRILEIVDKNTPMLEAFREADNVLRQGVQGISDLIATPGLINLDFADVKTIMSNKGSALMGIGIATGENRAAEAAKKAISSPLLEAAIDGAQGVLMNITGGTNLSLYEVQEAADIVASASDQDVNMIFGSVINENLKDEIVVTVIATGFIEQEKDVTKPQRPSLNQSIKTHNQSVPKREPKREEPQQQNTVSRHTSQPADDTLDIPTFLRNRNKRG

Enterococcus faecium [29] = assay: Ratio of MBC to MIC against Vancomycin-resistant Enterococcus faecium ATCC 51559; type: functional
Enterococcus faecium [30] = assay: Ratio of MBC to MIC against Vancomycin-susceptible Enterococcus faecium ATCC 19434; type: functional
Enterococcus faecalis [31] = assay: Ratio of MBC to MIC against Vancomycin-susceptible Enterococcus faecalis ATCC 29212; type: functional
Staphylococcus aureus [32] = assay: Ratio of MBC to MIC against penicillin-resistant Staphylococcus aureus ATCC 31007; type: functional

SMILES	MIC (Pseudomonas aeruginosa)	MIC [1]	Ratio (Staphylococcus aureus [2])	MIC (Escherichia coli)	MIC (Streptococcus pyogenes [3])	MBC (Bacillus subtilis [4])	MIC (Enterococcus faecium [5])	MIC (Bacillus subtilis [6])	MIC (Enterococcus faecalis [7])	Ratio (Staphylococcus aureus [8])	MIC (Enterococcus faecalis [9])	MIC (Staphylococcus aureus [10])	MIC (Enterococcus faecium [11])	MBC (Staphylococcus aureus [12])	MBC (Staphylococcus aureus [13])	Ratio (Bacillus pumilus [14])	MBC (Staphylococcus aureus [15])	MBC (Bacillus pumilus [17])	MIC (Streptococcus pyogenes [18])	MIC (Bacillus pumilus [19])	further results
Cc1ccc2c[n+](C)c3ccc(-c4ccc5ccn(Cc6ccccc6)c5c4)cc3c2c1.[Cl-]	> 64 µg/mL	8 µg/mL	16	> 64 µg/mL	4 µg/mL	4 µg/mL	4 µg/mL	2 µg/mL	8 µg/mL	4	16 µg/mL	2 µg/mL	4 µg/mL	16 µg/mL	64 µg/mL	16	32 µg/mL	64 µg/mL	4 µg/mL	4 µg/mL	Ratio (Bacillus subtilis [16]): 2; MIC (Staphylococcus aureus [20]): 4 µg/mL; MIC (Staphylococcus aureus [21]): 2 µg/mL; MIC (Staphylococcus aureus [22]): 4 µg/mL
CC(=O)NC[C@H]1CN(c2ccc(N3CCOCC3)c(F)c2)C(=O)O1 [LINEZOLID]	> 64 µg/mL	4 µg/mL (≈ 11.9 µM)	–	> 64 µg/mL	1 µg/mL (≈ 2.96 µM)	64 µg/mL (≈ 190 µM)	4 µg/mL (≈ 11.9 µM)	0.5 µg/mL (≈ 1.48 µM)	–	–	–	–	4 µg/mL (≈ 11.9 µM)	8 µg/mL (≈ 23.7 µM)	16 µg/mL (≈ 47.4 µM)	–	128 µg/mL (≈ 379 µM)	16 µg/mL (≈ 47.4 µM)	1 µg/mL (≈ 2.96 µM)	2 µg/mL (≈ 5.93 µM)	MBC (Enterococcus faecalis [23]): 64 µg/mL (≈ 190 µM); MBC (Enterococcus faecium [24]): 64 µg/mL (≈ 190 µM); Activity (Staphylococcus aureus [25]): Active; MBC (Enterococcus faecalis [26]): 64 µg/mL (≈ 190 µM); MBC (Enterococcus faecium [27]): > 64 µg/mL; inhibition [28]: inactive
Cc1ccc2c[n+](C)c3ccc(-c4ccc5ccn(Cc6ccc(OC(F)(F)F)cc6)c5c4)cc3c2c1.[Cl-]	> 64 µg/mL	2 µg/mL	2	> 64 µg/mL	8 µg/mL	4 µg/mL	4 µg/mL	4 µg/mL	4 µg/mL	1	4 µg/mL	4 µg/mL	4 µg/mL	4 µg/mL	4 µg/mL	8	4 µg/mL	32 µg/mL	8 µg/mL	4 µg/mL	MBC (Enterococcus faecalis [23]): 16 µg/mL; MBC (Enterococcus faecium [24]): 32 µg/mL; Ratio (Enterococcus faecium [29]): 8; Ratio (Enterococcus faecium [30]): 4; Ratio (Enterococcus faecalis [31]): 4; Ratio (Staphylococcus aureus [32]): 1; MBC (Enterococcus faecalis [26]): 16 µg/mL; MBC (Enterococcus faecium [27]): 16 µg/mL; Ratio (Bacillus subtilis [16]): 1; MIC (Staphylococcus aureus [20]): 4 µg/mL; MIC (Staphylococcus aureus [21]): 2 µg/mL; MIC (Staphylococcus aureus [22]): 4 µg/mL
